The results in this text go back to patent US7666864B2, “Bicyclic nitroimidazole-substituted phenyl oxazolidinones” (priority 2008, dated 2010).

Each structure is given as a SMILES string. Converted amounts (≈) assume the structure as drawn.

This assay has as its system M. tuberculosis (PA-resistant). In words: microbe, parasite or virus in culture. Particulars: for MIC: Mycobacterium tuberculosis. Type of assay: cell-based, Mycobacterium tuberculosis.

As to `CC(=O)NC[C@H]1CN(c2ccc(-c3ccc(CO[C@@H]4COc5nc([N+](=O)[O-])cn5C4)cc3)c(F)c2)C(=O)O1` [Example 31, (S,S)—N-{3-[2-Fluoro-4′-(2-nitro-6,7-dihydro-5H-imidazo[2,1-b][1,3]oxazin-6-yloxymethyl)-biphenyl-4-yl]-2-oxo-oxazolidin-5-ylmethyl}-acetamide], the “MIC against PA-824 resistant strain of Mycobacterium tuberculosis H37Rv” value was determined as 1 micg/mL and the MIC is 1 µg/mL (≈ 1.9 µM).

For `CC(=O)NC[C@H]1CN(c2ccc(N3CCOCC3)c(F)c2)C(=O)O1` [Linezolid, linezolid, reference compound], the MIC amounted to 0.5 µg/mL (≈ 1.48 µM).

On to `O=[N+]([O-])c1cn2c(n1)OC[C@@H](OCc1ccc(OC(F)(F)F)cc1)C2` [PA-824, reference compound], for which the “activity against PA-824 resistant strain (in words)” value is listed as “loses its activity” and the MIC is over 32 µg/mL.

For `CC(=O)NC[C@H]1CN(c2ccc(-c3cnc(O[C@@H]4COc5nc([N+](=O)[O-])cn5C4)nc3)c(F)c2)C(=O)O1` [Example 8, (S,S)—N-(3-{3-Fluoro-4-[2-(2-nitro-6,7-dihydro-5H-imidazo[2,1-b][1,3]oxazin-6-yloxy)-pyrimidin-5-yl]-phenyl}-2-oxo-oxazolidin-5-ylmethyl)-acetamide], the “MIC against PA-824 resistant strain of Mycobacterium tuberculosis H37Rv” value is given as 0.5 micg/mL and the MIC came to 0.5 µg/mL (≈ 0.974 µM).
